This assay has as its system PBMCs infected with VSV-G pseudotyped HIV virus stock (VSV-G/pNLG1-P2A-AEnv). The assay is described as follows: cells. It is filed as cell-based. The note with it: Human immunodeficiency virus 1, PBMC, read-out: TACK EC50.
With `N[C@H](C(=O)N1Cc2ccccc2C1)[C@H]1CC[C@H](N2CCCC2)CC1` [Example 1, (2S)-2-amino-1-(1,3-dihydroisoindol-2-yl)-2-[(1R,4S)-4-(pyrrolidin-1-yl)cyclohexyl]ethanone], the EC50 turned out to be 0.211 µM.

As to `N[C@H](C(=O)N1Cc2ccccc2C1)[C@H]1CC[C@@H](O)CC1` [Example 2], the half-maximal effective concentration (EC50) worked out at 6.42 µM.

As for `N[C@H](C(=O)N1Cc2ccccc2C1)C1CCCCC1` [Example 3], the EC50 amounted to 1.41 µM.

Turning to `N#C[C@@H]1C[C@H](F)CN1C(=O)[C@@H](N)C1CCCCC1` [Example 4], the EC50 is 0.314 µM.

`C#CCOCCO[C@H]1CCN(C2CCC([C@H](N)C(=O)N3Cc4ccccc4C3)CC2)C1` (stereo partly drawn) [Example 5]: the EC50 worked out at 0.533 µM.

For the molecule `C#CCO[C@H]1CCN(C2CCC([C@H](N)C(=O)N3Cc4ccccc4C3)CC2)C1` (stereo partly drawn) [Example 6], the concentration giving a half-maximal response (EC50) came to 0.23 µM.

Values taken from patent publication US12310945B2, “Cyclohexylglycine derivatives as selective cytotoxic agents” (Merck Sharp & Dohme LLC, priority 2022, dated 2025).
